Results taken from US8394971B2, “Indole derivatives as selective androgen receptor modulators (SARMS)” (Janssen Pharmaceutica N.V., priority 2004, dated 2013).
pIC50: −log10 of the molar value. Where two headings read alike, the source gives them in different places.

Key:
[1] = biological target: T1, androgen receptor (adenovirus AdEasy+rAR in COS-7 cells) (Rattus norvegicus, UniProt P15207); assay: COS-7 Whole-Cell Androgen Receptor Binding Assay, Adenovirus Transduction; details: for pIC50: read-out: IC50
T1 construct: expressed in transfected cells
T1 sequence (P15207 1-902): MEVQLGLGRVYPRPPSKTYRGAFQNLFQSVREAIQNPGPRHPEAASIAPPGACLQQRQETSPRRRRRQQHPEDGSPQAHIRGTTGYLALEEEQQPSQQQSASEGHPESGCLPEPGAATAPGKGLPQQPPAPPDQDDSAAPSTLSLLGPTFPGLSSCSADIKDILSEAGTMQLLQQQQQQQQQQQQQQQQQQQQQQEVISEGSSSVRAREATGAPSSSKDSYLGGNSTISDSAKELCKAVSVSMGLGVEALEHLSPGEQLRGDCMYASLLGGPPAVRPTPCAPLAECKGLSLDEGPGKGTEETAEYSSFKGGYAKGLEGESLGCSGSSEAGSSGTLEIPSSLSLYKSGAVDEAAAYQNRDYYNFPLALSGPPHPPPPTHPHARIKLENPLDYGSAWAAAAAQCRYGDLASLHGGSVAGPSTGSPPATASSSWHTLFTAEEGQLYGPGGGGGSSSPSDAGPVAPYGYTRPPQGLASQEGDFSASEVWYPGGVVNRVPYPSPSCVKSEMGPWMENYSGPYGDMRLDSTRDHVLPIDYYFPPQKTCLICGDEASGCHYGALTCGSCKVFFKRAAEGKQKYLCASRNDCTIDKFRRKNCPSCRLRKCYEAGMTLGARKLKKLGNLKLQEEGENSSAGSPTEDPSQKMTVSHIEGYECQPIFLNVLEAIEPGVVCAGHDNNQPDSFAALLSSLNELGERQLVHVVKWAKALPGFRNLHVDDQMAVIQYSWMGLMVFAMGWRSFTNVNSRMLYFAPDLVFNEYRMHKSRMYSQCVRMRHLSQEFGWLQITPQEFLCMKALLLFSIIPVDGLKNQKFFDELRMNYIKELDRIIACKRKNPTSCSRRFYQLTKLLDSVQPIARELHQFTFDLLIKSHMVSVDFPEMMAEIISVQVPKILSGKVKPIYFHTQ

[2] = biological target: T2, androgen receptor (rat ventral prostate cytosol) (Rattus norvegicus, UniProt P15207); assay: Androgen Receptor Binding Using Rat Ventral Prostate Cytosol
T2 construct: from tissue; host or cells: ventral prostate of castrated male Sprague Dawley or Wistar rats, cytosol
T2 sequence (P15207 1-902): T1 sequence (P15207 1-902)
Experimental: The assay was run on a 96 well plate with each well filled with a total reaction volume 150 μL, of a solution containing 5 pmol androgen receptor LBD (Panvera) or 30 μL of freshly prepared rat cytosol, 0.5 nM [^3H] […] (TED buffer contains 10 mM Tris.HCl pH 7.4, 1 mM sodium molybdate, 1.5 mM EDTA, 1 mM DTT and 10% (v/v) glycerol.)
On day one, the solution containing receptor, tracer and TED buffer was distributed into a 96 well plate. Diluted test compound or control vehicle was then added to individual wells and the plate incubated at 4° C. overnight.
On day two, to each well was then added 20 μL human γ-globulin (ICN 823102), prepared at 25 mg/ml in TE pH 8.0, and 55 μL 40% polyethylene glycol 8000 (JT Baker U222-08), prepared in TE pH 8.0. The plate was incubated at 4° C. for 60 minutes. During incubation, the harvester was rinsed with 10% PEG 8000, prepared in TE pH 8.0, and a GF/C Unifilter-96 was pre-wet with 10% PEG. The binding reaction was filtered, the retentate was washed three times with 10% PEG and dried under vacuum for a couple of minutes, then dried at 50° C. for 5 min and the plate was bottom sealed. Next, 25 μL of Microscint-20 (Packard) was added to the filter wells and the plate was top sealed. The plate wells were then counted on a TopCount (Packard).
Rat Prostate Cytosol Preparation:
Male Sprague Dawley or Wistar rats (Charles River, 200-300 g) were used for each preparation. The day before preparing the cytosol, the rats were castrated using standard surgical procedures.
The rats were euthanized by carbon dioxide asphyxiation. The rat prostates were quickly removed and placed on ice in pre-chilled, pre-weighed 50 mL plastic tubes. No more than five prostates were placed into one tube. The tubes were then weighed and the prostate tissue wet weights calculated.
To the chilled prostate tissue was then added […] of chilled homogenization buffer. The homogenization buffer was freshly prepared by mixing 10 mM Tris.HCl, pH 7.4, 1 mM sodium molybdate, 1.5 mM EDTA, 1 mM dithiothreitol, 10% (v/v) glycerol and 1% protease inhibitor cocktail (Sigma P 8340).
The prostate tissue was homogenized in a cold room using a pre-chilled Polytron PT3000 homogenizer (Brinkmann). Homogenization was performed at a speed setting of 20, three times for 10 sec bursts. The tubes containing the prostate tissue was kept on ice while homogenizing. The homogenate was allowed to rest on ice for 20 sec between bursts.
The homogenate was then placed into pre-chilled 3 mL polycarbonate ultracentrifuge tubes and centrifuged in the TLA-100 rotor of a TL-100 ultracentrifuge for 12 min at 100,000 rpm at 4° C. The resulting supernatant was stored in 1 mL aliquots at −80° C. until needed.
Binding to the androgen receptor was determined according to the protocol described in Example 86 using the above prepared rat cytosol.
% Inhibition was determined by testing dilutions of the test compound (usually duplicates of 10 μM) in the binding assay. Counts per well were measured and percents of inhibition determined. […] Counts per well were measured and IC50s determined by linear regression.

[3] = COS binding, 3000 nM unless otherwise noted
[4] = rat cytosol, concentration 3000 nM

Row | Compound | % Inhibition [1, 3] [%] | % Inhibition [2, 4] [%] | % Inhibition [1] [%] | pIC50 ([1]; COS binding) | % Inhibition ([2]; 3 µM) [%]
1 | CC(O)(C[S+]([O-])Cc1ccccc1)c1cc2cc([N+](=O)[O-])c(C(F)(F)F)cc2[nH]1 (mixture of isomers) [compound 161] | 20 | 39 |  |  | 
2 | CSCCC(C)(O)c1cc2cc([N+](=O)[O-])c(C(F)(F)F)cc2[nH]1 (racemic) [compound 47] |  |  | 78 | < 6.00 | 81
3 | COc1ccc(S(=O)(=O)CC(C)(O)c2cc3cc(Cl)c(C(F)(F)F)cc3[nH]2)cc1 (racemic) [compound 129] | 10 | 39.5 |  |  | 
4 | COc1ccc(SCC(C)(O)c2cc3cc(Cl)c(C(F)(F)F)cc3n2S(C)(=O)=O)cc1 (racemic) [compound 130] | −8 | 32.55 |  |  | 
5 | CC(C)CSCC(C)(O)c1cc2cc([N+](=O)[O-])c(C(F)(F)F)cc2[nH]1 (racemic) [compound 170] |  | 80 | 67 | < 5.52 | 
